One molecule from BindingDB's records for doi:10.1016/j.bmcl.2009.10.049 (Wyeth Research, 2009) can be followed below.

The target in this assay is 3-phosphoinositide-dependent protein kinase 1 (Homo sapiens) (UniProt O15530). Description: Inhibition of PDK1.

Bounds are passed on as bounds.

For `CN(C)Cc1ccc(-c2cnn3c(-c4cccc(NC(=O)c5cccc(C(F)(F)F)c5)c4)ccnc23)cc1` [N-[3-(3-{4-[(dimethylamino)methyl]phenyl}pyrazolo[1,5-a]pyrimidin-7-yl)phenyl]-3-(trifluoromethyl)benzamide], the IC50 is greater than 2000 nM.

Broadly, the IC50 is the midpoint of a concentration-inhibition curve.
